Reference: PubChem BioAssay AID2060513 (Molecular Pharmacology Branch, DTP, NCI, 2025)

Test system: 299254-011-R-J1-PDC complex spheroids viability
Assay: Anticancer human tumor 299254-011-R-J1-PDC patient-derived melanoma cell line growth inhibition [GQUAD]
Details: for IC50: curve of first compound; for viability, T/C: stronger effect = lower value
In short: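 Tumor cells were grown as complex spheroids with HUVEC endothelial cells and mesenchymal stem cells as stroma. G-quadruplex stabilizers were combined with targeted agents over half-log dilutions from near the clinical Cmax, or from 10 microM.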
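Note: spheroids exposed to the agents for seven days before readout.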
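Throughout, for viability, T/C: percent viability relative to DMSO vehicle control wells = 100%.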

IC50 (second compound 0.0316 µM): > 316 nM
IC50 (second compound 0.1 µM): > 316 nM
IC50 (second compound 0.316 µM): > 316 nM
IC50 (second compound 1 µM): > 316 nM
IC50 (second compound 3.16 µM): > 316 nM
IC50 (second compound 10 µM): < 0.999 nM
SMILES: CC[C@@]1(O)C(=O)OCc2c1cc1n(c2=O)Cc2cc3c(CN(C)C)c(O)ccc3nc2-1 + Cc1cnc(CNC(=O)c2c(=O)c3ccc(N4CCCN(C)CC4)nc3n3c2sc2ccccc23)cn1
viability, T/C (second compound 0.0316 µM, first compound 0.000999 µM): 127%
viability, T/C (second compound 0.0316 µM, first compound 0.00316 µM): 86.3%
viability, T/C (second compound 0.0316 µM, first compound 0.00999 µM): 96.4%
viability, T/C (second compound 0.0316 µM, first compound 0.0316 µM): 86.7%
viability, T/C (second compound 0.0316 µM, first compound 0.0999 µM): 98.5%
viability, T/C (second compound 0.0316 µM, first compound 0.316 µM): 81.3%
viability, T/C (second compound 0.1 µM, first compound 0.000999 µM): 87.5%
viability, T/C (second compound 0.1 µM, first compound 0.00316 µM): 116%
viability, T/C (second compound 0.1 µM, first compound 0.00999 µM): 81.8%
viability, T/C (second compound 0.1 µM, first compound 0.0316 µM): 101%
viability, T/C (second compound 0.1 µM, first compound 0.0999 µM): 88.2%
viability, T/C (second compound 0.1 µM, first compound 0.316 µM): 73.8%
viability, T/C (second compound 0.316 µM, first compound 0.000999 µM): 106%
viability, T/C (second compound 0.316 µM, first compound 0.00316 µM): 92.8%
viability, T/C (second compound 0.316 µM, first compound 0.00999 µM): 103%
viability, T/C (second compound 0.316 µM, first compound 0.0316 µM): 84.9%
viability, T/C (second compound 0.316 µM, first compound 0.0999 µM): 92.4%
viability, T/C (second compound 0.316 µM, first compound 0.316 µM): 82.2%
viability, T/C (second compound 1 µM, first compound 0.000999 µM): 76.2%
viability, T/C (second compound 1 µM, first compound 0.00316 µM): 79.8%
viability, T/C (second compound 1 µM, first compound 0.00999 µM): 89.5%
viability, T/C (second compound 1 µM, first compound 0.0316 µM): 79.6%
viability, T/C (second compound 1 µM, first compound 0.0999 µM): 74.3%
viability, T/C (second compound 1 µM, first compound 0.316 µM): 76.6%
viability, T/C (second compound 3.16 µM, first compound 0.000999 µM): 80.8%
viability, T/C (second compound 3.16 µM, first compound 0.00316 µM): 70.7%
viability, T/C (second compound 3.16 µM, first compound 0.00999 µM): 89.9%
viability, T/C (second compound 3.16 µM, first compound 0.0316 µM): 94.5%
viability, T/C (second compound 3.16 µM, first compound 0.0999 µM): 77.7%
viability, T/C (second compound 3.16 µM, first compound 0.316 µM): 53.6%
viability, T/C (second compound 10 µM, first compound 0.000999 µM): 0.41%
viability, T/C (second compound 10 µM, first compound 0.00316 µM): 16.5%
viability, T/C (second compound 10 µM, first compound 0.00999 µM): 49.5%
viability, T/C (second compound 10 µM, first compound 0.0316 µM): 36.7%
viability, T/C (second compound 10 µM, first compound 0.0999 µM): 0.46%
viability, T/C (second compound 10 µM, first compound 0.316 µM): 0.37%
